≈ marks a conversion by molar mass, not a printed value.
What was measured:
[1] = Ionization constant, pKa of the compound by UV spectroscopy; type: physicochemical
[2] = n-octanol/water partition coefficient, log P of the compound at 25 deg C after 24 hrs by saturation shake flask based UV spectroscopy; type: physicochemical
Bacillus sp. = assay: Antibacterial activity against Bacillus proteus ATCC 13315 after 24 hrs by micro broth dilution method; type: functional; settings: Bacillus sp. (in: firmicutes), ATCC 13315, 24 h
Candida = assay: Antifungal activity against Candida mycoderma after 24 hrs by micro broth dilution method; type: functional
Staphylococcus aureus [3] = assay: Antibacterial activity against Staphylococcus aureus ATCC 25923 after 24 hrs by micro broth dilution method; type: functional; settings: ATCC 25923, 24 h
Aspergillus flavus = assay: Antifungal activity against Aspergillus flavus after 24 hrs by micro broth dilution method; type: functional
Staphylococcus aureus [4] = assay: Antibacterial activity against methicillin-resistant Staphylococcus aureus N315 after 24 hrs by micro broth dilution method; type: functional; settings: N315, 24 h
Shigella dysenteriae = assay: Antibacterial activity against Shigella dysenteriae ATCC 51252 after 24 hrs by micro broth dilution method; type: functional; settings: ATCC 51252, 24 h
Escherichia coli = assay: Antibacterial activity against Escherichia coli DH52 after 24 hrs by micro broth dilution method; type: functional; settings: DH52, 24 h
Pseudomonas aeruginosa = assay: Antibacterial activity against Pseudomonas aeruginosa ATCC 27853 after 24 hrs by micro broth dilution method; type: functional; settings: ATCC 27853, 24 h
Cyberlindnera jadinii = assay: Antifungal activity against Candida utilis ATCC 9950 after 24 hrs by micro broth dilution method; type: functional; settings: Williopsis jadinii, ATCC 9950, 24 h
Candida albicans = assay: Antifungal activity against Candida albicans ATCC 90029 after 24 hrs by micro broth dilution method; type: functional; settings: ATCC 90029, 24 h
Micrococcus luteus = assay: Antibacterial activity against Micrococcus luteus ATCC 4698 after 24 hrs by micro broth dilution method; type: functional; settings: ATCC 4698, 24 h
Bacillus spizizenii = assay: Antibacterial activity against Bacillus subtilis ATCC 6633 after 24 hrs by micro broth dilution method; type: functional; settings: ATCC 6633, 24 h

Structure (SMILES)	pKa [1]	logP at 24 h [2]	MIC (Bacillus sp.) [µg/mL]	MIC (Candida) [µg/mL]	MIC (Staphylococcus aureus [3]) [µg/mL]	MIC (Aspergillus flavus) [µg/mL]	MIC (Staphylococcus aureus [4]) [µg/mL]	MIC (Shigella dysenteriae) [µg/mL]	MIC (Escherichia coli) [µg/mL]	MIC (Pseudomonas aeruginosa) [µg/mL]	MIC (Cyberlindnera jadinii) [µg/mL]	MIC (Candida albicans) [µg/mL]	MIC (Micrococcus luteus) [µg/mL]	MIC (Bacillus spizizenii) [µg/mL]
Clc1ccc(CN(Cc2nnn[nH]2)c2ccccc2)cc1	4.38	1.39	32 (≈ 107 µM)	16 (≈ 53.4 µM)	64 (≈ 214 µM)	32 (≈ 107 µM)	128 (≈ 427 µM)	64 (≈ 214 µM)	32 (≈ 107 µM)	64 (≈ 214 µM)	32 (≈ 107 µM)	16 (≈ 53.4 µM)	64 (≈ 214 µM)	32 (≈ 107 µM)
COc1ccc(N(Cc2nnn[nH]2)Cc2ccc(F)cc2F)cc1	4.31	1.37	64 (≈ 193 µM)	16 (≈ 48.3 µM)	64 (≈ 193 µM)	32 (≈ 96.6 µM)	64 (≈ 193 µM)	64 (≈ 193 µM)	64 (≈ 193 µM)	64 (≈ 193 µM)	16 (≈ 48.3 µM)	32 (≈ 96.6 µM)	64 (≈ 193 µM)	64 (≈ 193 µM)
Fc1cccc(CN(Cc2nnn[nH]2)c2ccccc2)c1	4.19	1.29	64 (≈ 226 µM)	32 (≈ 113 µM)	64 (≈ 226 µM)	32 (≈ 113 µM)	64 (≈ 226 µM)	32 (≈ 113 µM)	32 (≈ 113 µM)	64 (≈ 226 µM)	16 (≈ 56.5 µM)	32 (≈ 113 µM)	64 (≈ 226 µM)	32 (≈ 113 µM)
Fc1ccc(CN(Cc2nnn[nH]2)c2ccccc2)c(F)c1	4.13	1.36	64 (≈ 212 µM)	16 (≈ 53.1 µM)	64 (≈ 212 µM)	32 (≈ 106 µM)	32 (≈ 106 µM)	64 (≈ 212 µM)	64 (≈ 212 µM)	32 (≈ 106 µM)	16 (≈ 53.1 µM)	64 (≈ 212 µM)	64 (≈ 212 µM)	64 (≈ 212 µM)
